Measurements taken from US5314998A, “Organic solvent-soluble metal-azo and metal-azomethine dyes” (Minnesota Mining and Manufacturing Company, priority 1992, dated 1994).

How the values were obtained:
[1] = Solubility in heptane (absorbance at maximum of saturated solution), chromium metal-azo complexes; type: physicochemical; details: room temperature (22° C.)
Experimental: The samples were prepared by shaking the dye in heptane for several hours, allowing the samples to sit overnight, and filtering through a plug of glass wool to remove particulates.

[2] = Differential Scanning Calorimeter scan, melting behaviour; details: Differential Scanning Calorimeter scan of analytically pure compound
[3] = Thermogravimetric analysis, loss of pyridine ligand; type: physicochemical
[4] = reported to decompose, apparently without melting; cited from earlier work
[5] = Solubility in heptane (absorbance at maximum), four-coordinate platinum metal-azo complexes; type: physicochemical; details: ambient temperature
Description: ^b result obtained by measuring in a 1 cm cell and dividing result by
^c estimate based on fitting the spectrum in the 510-550 nm region.

Q: Which “Absorbance at Maximum in Heptane/1 mm Cell” value (“Absorbance at Maximum” for short) [1] does the source give for “[[2,2-azobis[phenolato]](-2)-N,O,O](2,4-pentanedionato-O,O)(ethyl isonicotinate)chromium [Compound 33]” here?
A: 0.634

Q: With `CC(=O)[CH-]C(C)=O.[Cr+3].[O-]c1ccccc1N=Nc1ccccc1[O-].c1ccncc1` [Compound 28, [[2,2-azobis[phenolato]](-2)-N,O,O](pyridine)(2,4-pentanedionato-O,O)chromium] as the compound, how does the “Absorbance at Maximum” value [1] read?
A: 0.022

Q: With `CC(=O)C=C(C)[O-].CCc1ccncc1.[Cr+3].[O-]c1ccccc1N=Nc1ccccc1[O-]` [Compound 31, [[2,2-azobis[phenolato]](-2)-N,O,O](2,4-pentanedionato-O,O)(4-ethylpyridine)chromium] as the compound, how does the “Absorbance at Maximum” value [1] read?
A: 0.644

Q: With `CCCCC(CCCC)c1ccncc1.CCCCN(CCCC)S(=O)(=O)c1ccc([O-])c(N=Nc2c([O-])ccc3ccccc23)c1.[Cu+2]` [Compound 11, [1-[5-N,N-dibutylsulfonamido-2-hydroxyphenyl]azo-2-naphthalenolato(-2)](4-(5-nonylpyridine))copper] as the compound, how does the DSC melting behaviour [2] read?
A: has a classic melting transition associated with organic-like compounds

Q: And the “Temperature of 50% Loss of Pyridine Ligand” value [3]?
A: 223 °C

Q: For `CC(=O)C=C(C)[O-].CCOC(=O)c1cccnc1.[Cr+3].[O-]c1ccccc1N=Nc1ccccc1[O-]` [Compound 32, [[2,2-azobis[phenolato]](-2)-N,O,O](2,4-pentanedionato-O,O)(ethyl nicotinate)chromium], which “Absorbance at Maximum” value [1] is on record?
A: 0.362

Q: Which DSC melting behaviour [2] does the source give for `CCCCC(CCCC)c1ccncc1.[Cu+2].[O-]c1ccccc1N=Nc1ccccc1[O-]` [Compound 9, [[2,2-azobis[phenolato]](-2)-N,O,O](4-(5-nonylpyridine))copper] here?
A: has a classic melting transition associated with organic-like compounds

Q: And the “Temperature of 50% Loss of Pyridine Ligand” value [3]?
A: 148 °C

Q: What does the source list for `[Cu+2].[O-]c1ccccc1N=Nc1ccccc1[O-].c1ccncc1` [Compound 8, [[2,2-azobis[phenolato]](-2)-N,O,O](pyridine)copper]?
A: decomposition temperature [4]: 310 °C; Temperature of 50% Loss of Pyridine Ligand [3]: 133 °C

Q: With “[1-[5-N,N-dibutylsulfonamido-2-hydroxyphenyl]azo-2-naphthalenolato(-2)](pyridine)copper [Compound 10]” as the compound, how does the DSC melting behaviour [2] read?
A: does not exhibit a clean melt

Q: What about the “Temperature of 50% Loss of Pyridine Ligand” value [3] of the same compound?
A: 180 °C

Q: For “[[2,2-azobis[phenolato]](-2)-N,O,O](4-n-octylpyridine)platinum [Compound 17]”, which “Absorbance at Maximum” value [5] is on record?
A: 2.49

Q: For `[O-]c1ccccc1N=Nc1ccccc1[O-].[Pt+2].c1ccncc1` [Pt(DHAB)Py, [[2,2azobis[phenolato]](2)-N,O,O](pyridine)platinum, reference compound], which “Absorbance at Maximum” value [5] is on record?
A: 0.41
